Assay results taken from article PMC11489206, “Transport of perfluoroalkyl substances across human induced pluripotent stem cell-derived intestinal epithelial cells in comparison with primary human intestinal epithelial cells and Caco-2 cells” (Archives of Toxicology, 2024).

What was measured:
[1] = Transport study across hiPSC-derived IEC layers; details: human
Protocol: For differentiation into IECs, definitive endoderm cells were subsequently differentiated into intestinal stem cells by changing medium into DMEM/F12 containing 2% fetal bovine serum, 1% GlutaMAX (Gibco) and 250 ng/ml FGF2 (R&D Systems). After 4 days, cells were dissociated using Accutase and seeded onto polyester Transwell inserts (0.4 µm, Corning) coated with Growth Factor Reduced Matrigel #356231. Cells were cultured for 7 days in intestinal differentiation medium (DMEM/F-12 containing 2% fetal bovine serum, 1% non-essential amino acids (Gibco), 1 × B27 (Gibco), 1 × N2 (Gibco), 1% penicillin/streptomycin (Gibco) and 2 mM L-glutamine (Gibco)) supplemented with 20 ng/ml EGF (R&D Systems) and 30 µM Forskolin (Sigma). ROCK inhibitor, y-27632 (final concentration 10 µM; Stem Cell Technologies), was added during the initial 24 h after seeding to reduce cell death. The cells were subsequently cultured for 12 days in intestinal differentiation medium supplemented with 20 ng/ml EGF, 30 µM Forskolin, 5 µM 5-aza-2′-deoxycytidine (Sigma), 20 µM PD98059 (Stem Cell Technologies) and 0.5 µM A-83–01 (Sigma). The medium was refreshed every 2–3 days. Barrier integrity was determined by measuring apical to basolateral translocation of Lucifer yellow (see Supplementary Data for a detailed description).
(§1) Transport studies were performed in Caco-2 cells, hiPSC-derived IECs and EpiIntestinal microtissues. To that end, Caco-2 cell layers were differentiated for 21 days and hiPSCs were differentiated into IEC layers for 26 days, as described above. EpiIntestinal microtissues were subjected to transport studies 1 day after arrival. […] For all models, PFAS transport was assessed in apical to basolateral, and basolateral to apical direction using HBSS containing a mixture of PFASs containing 1 µM of each PFAS. See Supplementary Data for a detailed description of the method used for the transport studies of the model compounds and PFASs.
Prior to exposure to the transport study compounds, the cells were washed with transport medium (HBSS; Sigma). […] 100 µL aliquots were collected from the basolateral compartment and replaced with the same volume HBSS at settled time points (0, 15, 30 and 60 min). For basolateral to apical transport in the EpiIntestinal microtissues, 0.2 mL HBSS was added to the apical compartment and 0.5 mL HBSS containing a mixture of PFASs containing 1 µM of each PFAS, was added to the basolateral compartment. 100 µL aliquots were collected from the apical compartment and replaced with the same volume of HBSS at settled time points (0, 15, 30 and 60 min). For apical to basolateral transport across the Caco-2 cell layers and hiPSC-derived IEC layers, 1.2 mL HBSS was added to the basolateral compartment and 0.4 mL HBSS containing either model compounds (10 µM) or a mixture of PFASs containing 1 µM of each PFAS, was added to the apical compartment. 100 µL aliquots were collected from the basolateral compartment and replaced with the same volume of HBSS at settled time points (0, 7.5, 15, 30 and 60 min for the model compounds with both models and the PFASs with the hiPSC-derived IEC layers and 0, 15, 30 and 60 min for PFASs with the Caco-2 cell layers). For basolateral to apical transport, 0.4 mL HBSS was added to the apical compartment and 1.2 mL HBSS containing 10 µM of the model compounds or a mixture of PFASs containing 1 µM of each PFAS, was added to the basolateral compartment. 100 µL aliquots were collected from the apical compartment and replaced with the same volume of HBSS at settled time points (0, 7.5, 15, 30 and 60 min for the model compounds with both models and the PFASs with the hiPSC-derived IEC layers and 0, 15, 30 and 60 min for PFASs with the Caco-2 cell layers).

[2] = Transport study across EpiIntestinal microtissues; details: human
Protocol: The human EpiIntestinal small intestinal microtissues, consisting of epithelial cells and an underlying lamina propria containing intestinal fibroblasts, were obtained from MatTek Life Sciences (Ashland, USA). Cell culture inserts (8.8 mm ID) were placed in 12-well plates and cells were maintained in 100 µl maintenance medium (MatTek Life Sciences) in the apical compartment and 5 ml maintenance medium in the basolateral compartment upon arrival. The transport studies were performed 1 day after arrival.
as §1
(§2) Prior to exposure to the transport study compounds, the cells were washed with transport medium (HBSS; Sigma). […] 100 µL aliquots were collected from the basolateral compartment and replaced with the same volume HBSS at settled time points (0, 15, 30 and 60 min). For basolateral to apical transport in the EpiIntestinal microtissues, 0.2 mL HBSS was added to the apical compartment and 0.5 mL HBSS containing a mixture of PFASs containing 1 µM of each PFAS, was added to the basolateral compartment. 100 µL aliquots were collected from the apical compartment and replaced with the same volume of HBSS at settled time points (0, 15, 30 and 60 min). For apical to basolateral transport across the Caco-2 cell layers and hiPSC-derived IEC layers, 1.2 mL HBSS was added to the basolateral compartment and 0.4 mL HBSS containing either model compounds (10 µM) or a mixture of PFASs containing 1 µM of each PFAS, was added to the apical compartment. 100 µL aliquots were collected from the basolateral compartment and replaced with the same volume of HBSS at settled time points (0, 7.5, 15, 30 and 60 min for the model compounds with both models and the PFASs with the hiPSC-derived IEC layers and 0, 15, 30 and 60 min for PFASs with the Caco-2 cell layers). For basolateral to apical transport, 0.4 mL HBSS was added to the apical compartment and 1.2 mL HBSS containing 10 µM of the model compounds or a mixture of PFASs containing 1 µM of each PFAS, was added to the basolateral compartment. 100 µL aliquots were collected from the apical compartment and replaced with the same volume of HBSS at settled time points (0, 7.5, 15, 30 and 60 min for the model compounds with both models and the PFASs with the hiPSC-derived IEC layers and 0, 15, 30 and 60 min for PFASs with the Caco-2 cell layers). After 60 minutes, all liquid was collected from the apical and basolateral compartment and the cells were lysed in 200 µL RIPA buffer (Thermo Fisher Scientific), and chemicals were quantified in the different compartments (apical, basolateral and cells) in order to calculate the mass balance.
(§3) The apparent permeability coefficient (Papp, cm/s) was calculated using the following equation: […]
where A is the surface area (cm^2), dQ is the amount of the compound transported (nmol) over the respective time interval dt (s) and C0 is the initial concentration in the donor compartment (µM).

Caco-2 cell layers = experiment: Transport study across Caco-2 cell layers; details: Caco-2 model; PFAS mixture 1 µM each; not detected in the basolateral compartment
Protocol: (§4) Human colorectal adenocarcinoma cells (Caco-2, HTB-37) were obtained from American Type Culture Collection (ATCC, Manassas, VA). Cells were cultured in a humidified incubator (37°C, 5% CO2) in Dulbecco’s modified Eagle’s medium (DMEM) supplemented with 10% heat-inactivated fetal bovine serum (Gibco, Thermo Fisher Scientific, Waltham, MA), 1% non-essential amino acids (Gibco) and 1% penicillin/streptomycin (Sigma). For experiments, Caco-2 cells below passage number 50 were used within 10 passages. They were harvested at 80% confluence using Trypsin/EDTA (0.25%/0.05%; PAN Biotech, Aidenbach, Germany) and seeded at a density of 4 × 10^5 cells/cm^2 into inserts with a polycarbonate membrane (0.4 µm pore, Corning, New York, NY). After 21 days of differentiation (using 500 µl cell culture medium in the apical and 1500 µl in the basolateral compartment), monolayer integrity was determined by measuring transepithelial electrical resistance (TEER) with a Millicell ERS Volt-Ohm meter (Millipore, Bedford, MA).
as §1, §2, §3

[3] = Transport study across Caco-2 cell layers; details: human, Caco-2
Protocol: as §4, §1, §2, §3

hiPSC-derived IEC layers = experiment: Barrier integrity: apical to basolateral translocation of lucifer yellow; assay type: in vitro ADME, human; details: terminally differentiated IECs; 500 µg/ml apical, 3 hours; data not shown
Protocol: The medium was refreshed every 2–3 days.
To determine barrier integrity of the hiPSC-derived IEC layers, apical to basolateral translocation of lucifer yellow was measured. 500 µg/ml Lucifer yellow, in differentiation medium, containing EGF, Forskolin, 5-aza-2′-deoxycytidine, PD98059, A-83-01, was added to the apical compartment (400 µl/insert) and incubated at 37 °C for 3 hours. 50 µl medium was collected from the basolateral compartment at 30 min intervals. The fluorescence intensity was measured at 485 nm excitation and 530 nm emission wavelength using a microplate reader (Synergy HT, BioTek, Winooski, VT).

Compound | Papp A→B at 60 min, 1 µM [1] [×10⁻⁶ cm/s] | Papp B→A at 60 min, 1 µM [1] [×10⁻⁶ cm/s] | efflux ratio at 60 min, 1 µM [1] | Papp A→B at 60 min, 1 µM [2] [×10⁻⁶ cm/s] | Papp B→A at 60 min, 1 µM [2] [×10⁻⁶ cm/s] | efflux ratio at 60 min, 1 µM [2] | Transport (in words) (Caco-2 cell layers) | Papp B→A at 60 min, 1 µM [3] [×10⁻⁶ cm/s] | Apical to basolateral transport of lucifer yellow (hiPSC-derived IEC layers)
O=C(O)C(F)(OC(F)(F)C(F)(F)C(F)(F)F)C(F)(F)F (stereo not drawn) [HFPO-DA, hexafluoropropylene oxide dimer acid] | 3.09 ± 0.09 | 4.49 ± 0.27 | 1.45 | 1.16 ± 0.19 | 1.04 ± 0.09 | 0.9 | no transport | 1.23 ± 0.25 | 
lucifer yellow |  |  |  |  |  |  |  |  | no quantifiable
